Results on 14 molecules are retold here after patent US20110182850A1, “ORGANIC COMPOUNDS AND THEIR USES” (priority 2009, published 2011).

The nature of series [1]: Measurement of thermodynamic solubility. It is filed as physicochemical. Particulars: for solubility at 24 h: thermodynamic from solid, read-out: solubility in water. How it is done:
Thermodynamic solubility for the compounds of the invention listed in Table C is measured by a published literature procedure, e.g., Liping Zhou, et al., J. Pharm. Sci (2007) 96(11): 3052-3071.
The DMSO stocks of test compounds previously dissolved in 25 μL of DMSO (˜10 mM) in mini-prep vial (MPV: Whatman, with PVDF filter and 0.45 μm pore size) chamber were evaporated via a GeneVac HT-4X evaporator for approximately 1 hour, at the guard temperature of 30° C. An aliquot of 250 μL buffer solution (pH 1.0 or 6.8) was added into each MPV chamber containing powders reconstituted from DMSO stock solutions. The MPV filter plungers were pushed down into the chamber until the membrane of the filter plunger slightly touched the surface of the buffer to promote equilibrium between the two compartments and to minimize the adsorption due to non-specific binding of samples during the subsequent 24-hr incubation (at 600 RPM at room temperature). Immediately after the 24-hr incubation, the plungers were further pushed down to the bottom of the chambers. More solution was pushed through the membrane and entered the plunger compartment. The filter/chamber assemblies were then put on a shaker for another 30 minutes at 600 RPM. Afterwards, filtrates were further diluted (1:10) with 50/50 acetonitrile/water solvent followed by a thorough mixing process. Both plates with diluted and undiluted filtrates were analyzed by HPLC and quantified against the four-point standard dilution curve of the same test compound (5 μM, 35 μM, 65 μM and 100 μM, respectively). In the current study, solubility reflects the average of triplicate samples tested at each pH.

In series [2] the target is T1, HCV NS3-4A serine protease (full-length NS3-4A protein, genotype 1a, strain HCV-1) (Hepatitis C virus genotype 1a, UniProt P26664).
T1 construct: using the full-length NS3-4A protein (genotype 1a, strain HCV-1)
T1 sequence (P26664 1658-1711): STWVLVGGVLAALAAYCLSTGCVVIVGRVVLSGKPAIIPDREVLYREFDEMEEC
T1 sequence (P26664 1027-1657): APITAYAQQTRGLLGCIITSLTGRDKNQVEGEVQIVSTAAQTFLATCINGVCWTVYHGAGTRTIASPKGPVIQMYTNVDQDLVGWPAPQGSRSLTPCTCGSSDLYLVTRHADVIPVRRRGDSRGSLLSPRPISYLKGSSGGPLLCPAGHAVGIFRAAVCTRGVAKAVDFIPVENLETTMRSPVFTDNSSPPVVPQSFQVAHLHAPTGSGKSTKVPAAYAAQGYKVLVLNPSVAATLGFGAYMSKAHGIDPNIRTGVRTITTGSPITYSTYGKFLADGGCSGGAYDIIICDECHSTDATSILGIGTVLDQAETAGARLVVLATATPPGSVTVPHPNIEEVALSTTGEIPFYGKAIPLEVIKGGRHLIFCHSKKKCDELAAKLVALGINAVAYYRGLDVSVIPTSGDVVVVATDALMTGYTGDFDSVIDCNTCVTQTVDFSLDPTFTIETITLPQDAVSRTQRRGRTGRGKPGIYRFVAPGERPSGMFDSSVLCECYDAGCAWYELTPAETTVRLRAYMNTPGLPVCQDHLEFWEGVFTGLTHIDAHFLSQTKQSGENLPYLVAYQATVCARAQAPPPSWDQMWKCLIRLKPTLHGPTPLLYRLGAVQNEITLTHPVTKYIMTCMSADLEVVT
Briefly: HCV NS3-4A protease assay. Format: biochemical. As for the experimental part:
The inhibitory activity of certain compounds of Table A against HCV NS3-4A serine protease is determined in a homogenous assay using the full-length NS3-4A protein (genotype 1a, strain HCV-1) and a commercially available internally-quenched fluorogenic peptide substrate as described by Taliani, M., et al. 1996 Anal. Biochem. 240:60-67, which is incorporated by reference in its entirety.

Where [3] appears, read: pH 1, simulated gastric fluid, pH of about 1.
[4] abbreviates: pH 6.8, aqueous buffer, pH of about 6.8.

Where two headings read alike, the source gives them in different places.

For `C=C[C@@H]1C[C@]1(NC(=O)[C@@H]1C[C@@]2(CN1C(=O)[C@@H](NC(=O)[C@@H](NC(=O)[C@@H]1CCCCN1CC)C1CCCCC1)C(C)(C)C)C(C)(C)C21CCC1)C(=O)NS(=O)(=O)C1(CCC)CC1` [Compound 67, (5R,8S)-7-[(2S)-2-{[(2S)-2-cyclohexyl-2-({[(2S)-1-ethylpiperidin-2-yl]carbonyl}amino)acetyl]amino}-3,3-dimethylbutanoyl]-10,10-dimethyl-N-[(1R,2S)-1-{[(1-propylcyclopropyl)sulfonyl]carbamoyl}-2-vinylcyclopropyl]-7-azadispiro[3.0.4.1]decane-8-carboxamide], the solubility at 24 h in series [1] (setting [3]) was ≥ 100 µM; in series [1] (setting [4]) it was ≥ 30 µM. In series [2] (Protease IC50), this molecule showed an IC50 of 1.5 nM. Consider `C=C[C@@H]1C[C@]1(NC(=O)[C@@H]1C[C@@]2(CN1C(=O)[C@@H](NC(=O)[C@@H](NC(=O)[C@@H]1CCCN1CC)C1CCCCC1)C(C)(C)C)C(C)(C)C21CCC1)C(=O)NS(=O)(=O)C1(CCC)CC1` [Compound 69, (5R,8S)-7-[(2S)-2-{[(2S)-2-cyclohexyl-2-({[(2S)-1-ethylpyrrolidin-2-yl]carbonyl}amino)acetyl]amino}-3,3-dimethylbutanoyl]-10,10-dimethyl-N-[(1R,2S)-1-{[(1-propylcyclopropyl)sulfonyl]carbamoyl}-2-vinylcyclopropyl]-7-azadispiro[3.0.4.1]decane-8-carboxamide], for which the solubility at 24 h in series [1] (setting [3]) is ≥ 100 µM; in series [1] (setting [4]) it was ≥ 30 µM. The same molecule gave an IC50 in series [2] (Protease IC50) of 1.5 nM. Take `C=C[C@@H]1C[C@]1(NC(=O)[C@@H]1C[C@@]2(CN1C(=O)[C@@H](NC(=O)[C@@H](NC(=O)[C@@H]1CCCN1CC)C1CCCCC1)C(C)(C)C)C(C)(C)C21CCC1)C(=O)NS(=O)(=O)C1(C)CC1` [Compound 71, (5R,8S)-7-[(2S)-2-{[(2S)-2-cyclohexyl-2-({[(2S)-1-ethylpyrrolidin-2-yl]carbonyl}amino)acetyl]amino}-3,3-dimethylbutanoyl]-10,10-dimethyl-N-[(1R,2S)-1-{[(1-methylcyclopropyl)sulfonyl]carbamoyl}-2-vinylcyclopropyl]-7-azadispiro[3.0.4.1]decane-8-carboxamide]: the solubility at 24 h was ≥ 100 µM in series [1] (setting [3]) and ≥ 30 µM in series [1] (setting [4]). The half-maximal inhibitory concentration (IC50) in series [2] (Protease IC50) was 0.3 nM.

Consider `C=C[C@@H]1C[C@]1(NC(=O)[C@@H]1C[C@@]2(CN1C(=O)[C@@H](NC(=O)[C@@H](NC(=O)[C@H]1CCCN1C(C)C)C(C)(C)C)C(C)(C)C)C(C)(C)C21CCC1)C(=O)NS(=O)(=O)C1CC1` [Compound 140, (5R,8S)-N-{(1R,2S)-1-[(cyclopropylsulfonyl)carba-moyl]-2-vinylcyclopropyl}-7-[(2S)-2-{[(2S)-2-({[(2R)-1-isopropylpyrrolidin-2-yl]carbonyl}amino)-3,3-dimethylbutanoyl]amino}-3,3-dimethylbutanoyl]-10,10-dimethyl-7-azadispiro[3.0.4.1]decane-8-carboxamide], for which inhibition in series [2] (Protease IC50) was half-maximal at 1.5 nM (IC50). Same read-out and setting: the same measure for `C=C[C@@H]1C[C@]1(NC(=O)[C@@H]1C[C@@]2(CN1C(=O)[C@@H](NC(=O)[C@@H](NC(=O)[C@@H]1CCCN1C(C)C)C(C)(C)C)C(C)(C)C)C(C)(C)C21CCC1)C(=O)NS(=O)(=O)C1CC1` [Compound 141, (5R,8S)-N-{(1R,2S)-1-[(cyclopropylsulfonyl)carba-moyl]-2-vinylcyclopropyl}-7-[(2S)-2-{[(2S)-2-({[(2S)-1-isopropylpyrrolidin-2-yl]carbonyl}amino)-3,3-dimethylbutanoyl]amino}-3,3-dimethylbutanoyl]-10,10-dimethyl-7-azadispiro[3.0.4.1]decane-8-carboxamide]: 2 nM; for `C=C[C@@H]1C[C@]1(NC(=O)[C@@H]1C[C@@]2(CN1C(=O)[C@@H](NC(=O)[C@@H](NC(=O)[C@H]1CCCCN1C(C)C)C(C)(C)C)C(C)(C)C)C(C)(C)C21CCC1)C(=O)NS(=O)(=O)C1CC1` [Compound 142, (5R,8S)-N-{(1R,2S)-1-[(cyclopropylsulfonyl)carba-moyl]-2-vinylcyclopropyl}-7-[(2S)-2-{[(2S)-2-({[(2R)-1-isopropylpiperidin-2-yl]carbonyl}amino)-3,3-dimethylbutanoyl]amino}-3,3-dimethylbutanoyl]-10,10-dimethyl-7-azadispiro[3.0.4.1]decane-8-carboxamide]: 3 nM. On the same count and under the same terms, the same measure for `C=C[C@@H]1C[C@]1(NC(=O)[C@@H]1C[C@@]2(CN1C(=O)[C@@H](NC(=O)[C@@H](NC(=O)[C@@H]1COCCN1C(C)C)C(C)(C)C)C(C)(C)C)C(C)(C)C21CCC1)C(=O)NS(=O)(=O)C1CC1` [Compound 143, (5R,8S)-N-{(1R,2S)-1-[(cyclopropylsulfonyl)carba-moyl]-2-vinylcyclopropyl}-7-[(2S)-2-{[(2S)-2-({[(3S)-4-isopropylmorpholin-3-yl]carbonyl}amino)-3,3-dimethylbutanoyl]amino}-3,3-dimethylbutanoyl]-10,10-dimethyl-7-azadispiro[3.0.4.1]decane-8-carboxamide]: 4 nM. The same measure, in the same setting: to `C=CCC1(S(=O)(=O)NC(=O)[C@@]2(NC(=O)[C@@H]3C[C@@]4(CN3C(=O)[C@@H](NC(=O)[C@@H](NC(=O)[C@@H]3CCCCN3C(C)C)C3CCCCC3)C(C)(C)C)C(C)(C)C43CCC3)C[C@H]2C=C)CC1` [Compound 144, (5R,8S)-N-[(1R,2S)-1-{[(1-allylcyclopropyl)sulfonyl]carba-moyl}-2-vinylcyclopropyl]-7-[(2S)-2-{[(2S)-2-cyclohexyl-2-({[(2S)-1-isopropylpiperidin-2-yl]carbonyl}amino)acetyl]amino}-3,3-dimethylbutanoyl]-10,10-dimethyl-7-azadispiro[3.0.4.1]decane-8-carboxamide] belongs 1 nM. With “(5R,8S)-7-[(2S)-2- ({cyclohexyl[(1H-pyrazol-4- ylcarbonyl)amino]acetyl} amino)-3,3-dimethylbutanoyl]-N- {(1R,2S)-1- [(cyclopropylsulfonyl)carba- moyl]-2-vinylcyclopropyl}- 10,10-dimethyl-7- azadispiro[3.0.4.1]decane-8- carboxamide [Compound 106]”, the IC50 in series [2] (read-out: Protease IC50) was 1 nM. Same read-out and setting: the same measure for “(5R,8S)-7-[(2S)-2-{[(2S)-2- cyclohexyl-2-({[(2S)-1- isopropylpiperidin-2- yl]carbonyl}amino)acetyl] amino}-3,3-dimethylbutanoyl]-N- {(1R,2S)-1- [(cyclopropylsulfonyl)carba- moyl]-2-vinylcyclopropyl}- 10,10-dimethyl-7- azadispiro[3.0.4.1]decane-8- carboxamide [Compound 21]”: 0.5 nM. On to “(5R,8S)-7-[(2S)-2-{[(2S)-2-cyclohexyl-2-({[(2S)-1-isopropylpiperidin-2-yl]carbonyl}amino)acetyl]amino}-3,3-dimethylbutanoyl]-N-{(1R,2S)-1-[(cyclopentylsulfonyl)carbamoyl]-2-vinylcyclopropyl}-10,10-dimethyl-7-azadispiro[3.0.4.1]decane-8-carboxamide [Compound 80]”, for which the figures for the solubility in water result in series [1] (pH 1) and in series [1] (pH 6.8) were “at least 100 micromolar” and “at least 30 micromolar”, respectively.

Regarding “(5R,8S)-7-[(2S)-2-{[{[(5- chloro-1H-indol-2- yl)carbonyl]amino}(cyclohex- yl)acetyl]amino}-3,3- dimethylbutanoyl]-N- {(1R,2S)-1- [(cyclopropylsulfonyl)carba- moyl]-2-vinylcyclopropyl}- 10,10-dimethyl-7- azadispiro[3.0.4.1]decane-8- carboxamide [Compound 129]”, in series [2] (read-out: Protease IC50), the 50% inhibitory concentration (IC50) is 15 nM. The same measure, in the same setting: the same measure for “(5R,8S)-7-{(2S)-2- [(cyclohexyl{[(1- methylcyclohexyl)carbonyl] amino}acetyl)amino]-3,3- dimethylbutanoyl}-N- {(1R,2S)-1- [(cyclopropylsulfonyl)carba- moyl]-2-vinylcyclopropyl}- 10,10-dimethyl-7- azadispiro[3.0.4.1]decane-8- carboxamide [Compound 128]”: 5 nM. With “(5R,8S)-N-{(1R,2S)-1- [(cyclopropylsulfonyl)carba- moyl]-2-vinylcyclopropyl}-7- [(2S)-2-({(2S)-3,3-dimethyl- 2-[(piperidin-1- ylcarbonyl)amino]butanoyl} amino)-3,3-dimethylbutanoyl]- 10,10-dimethyl-7- azadispiro[3.0.4.1]decane-8- carboxamide [Compound 57]”, in series [2] (read-out: Protease IC50), the IC50 came to 25 nM.
